One compound from PMC8390552, “Helix 12 stabilization contributes to basal transcriptional activity of PXR” (The Journal of Biological Chemistry, 2021) can be followed below.

Changes are numbered by the printed parent chain.

One data set addresses T1, PXR-F420A (Homo sapiens, UniProt O75469, F420A).
T1 sequence (O75469 1-434 F420A): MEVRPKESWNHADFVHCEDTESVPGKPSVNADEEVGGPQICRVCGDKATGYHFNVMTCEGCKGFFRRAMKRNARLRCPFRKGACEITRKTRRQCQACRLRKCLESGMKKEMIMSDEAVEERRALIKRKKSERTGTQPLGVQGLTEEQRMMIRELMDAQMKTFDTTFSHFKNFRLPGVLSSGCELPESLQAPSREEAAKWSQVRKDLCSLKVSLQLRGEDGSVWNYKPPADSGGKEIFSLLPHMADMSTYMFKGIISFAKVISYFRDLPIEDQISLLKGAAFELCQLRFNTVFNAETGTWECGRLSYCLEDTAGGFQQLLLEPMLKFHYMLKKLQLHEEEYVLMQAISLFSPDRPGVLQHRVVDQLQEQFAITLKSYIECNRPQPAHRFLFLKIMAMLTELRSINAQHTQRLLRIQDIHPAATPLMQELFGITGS
Description: Reporter gene assay (p3A4-pGL3, CYP3A4 promoter) in COS-1 cells expressing PXR-F420A. The note with it: 1 μM ligand, without PGC1α (Fig. S7). On the technique in general: In a reporter assay the amount or activity of a reporter protein is the signal.

For the next data set, the target named is T2, WT PXR (Homo sapiens, UniProt O75469).
T2 sequence (O75469 1-434): T1 sequence (O75469 1-434 F420A) with A420F
Description: Reporter gene assay (p3A4-pGL3, CYP3A4 promoter) in COS-1 cells expressing WT PXR. The note with it: 1 μM ligand, without PGC1α (Fig. S7).

Description for PXR-F420A: (§1) COS-1 cells were cultured in Dulbecco's Modified Eagle medium (DMEM, Fujifilm Wako Pure Chemical) supplemented with 10% fetal bovine serum (FBS, GE Healthcare), MEM nonessential amino acids, and antibiotic-antimycotic (Thermo Fisher Scientific). Twenty-four hours after seeding, the culture medium was replaced with prewarmed DMEM without FBS, and plasmids were transfected with Lipofectamine 3000 (Thermo Fisher Scientific) according to the manufacturer’s instructions.
(§2) Firefly luciferase luminescence was normalized to Renilla luciferase luminescence.
Description for WT PXR: as §1, §2

Regarding `Clc1ccccc1C(c1ccccc1)(c1ccccc1)n1ccnc1` [clotrimazole, Clotrimazole], the “Induction of reporter activity, PXR-F420A” value on PXR-F420A was “but not for PXR-F420A”. Besides, at WT PXR, the “Induction of reporter activity, WT PXR” value was “weak induction”.
